Measured values reported in patent US5981748A, “Synthesis of optically pure compounds useful as GARFT inhibitors and their intermediates” (Agouron Pharmaceuticals, Inc., priority 1998, dated 1999).

Molecular target: catalytic domain of the human GARFT (Homo sapiens, UniProt P22102)
Assay: biochemical
Protocol: Reactions mixtures were prepared containing the catalytic domain of the human GARFT, 0-250 nM test compound, 20 μM glycinamide ribonucleotide (GAR), 10 or 20 μM N^10 -formyl-5,8-dideazafolate (FDDF), 50 mM HEPES-KOH (pH 7.5), and 50 mM KCl. The reaction was initiated with the addition of enzyme to a final concentration of 11 nM, followed by monitoring of the increase in absorbance at 294 nm at 20° C. (ε294 =18.9 mM^-1 cm^-1).
The GARFT inhibition constant (Ki) was determined from the dependence of the steady-state catalytic rate on the inhibitor and substrate concentration. […] The Michaelis constant for FDDF, Km, was determined independently by the dependence of the catalytic rate on the FDDF concentration. Data for both the Km and Ki determinations were fitted by non-linear methods to the Michaelis equation or to the Michaelis equation for competitive inhibition, as appropriate.

catalytic domain of the human GARFT, sequence (P22102 810-1010 limits assumed): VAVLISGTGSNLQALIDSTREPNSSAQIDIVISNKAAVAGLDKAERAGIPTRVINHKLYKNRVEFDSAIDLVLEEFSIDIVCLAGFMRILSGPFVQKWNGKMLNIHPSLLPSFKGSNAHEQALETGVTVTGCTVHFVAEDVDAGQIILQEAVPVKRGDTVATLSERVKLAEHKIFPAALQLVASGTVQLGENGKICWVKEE

## Nc1nc2c(c(=O)[nH]1)S[C@H](CCc1ccc(C(=O)N[C@@H](CCC(=O)O)C(=O)O)s1)CN2 [Compound 15, 2-(5-[2-(2-Amino-4-oxo-4,6,7,8-tetrahydro-3H-pyrimido[5,4-b][1,4]thiazin-6(R)-yl)-ethyl]-thiophene)-2-L-glutamic acid]
  Ki: 3 nM
